# Experiments:
# Assay type in all cases: cell-based
# OVCAR-5 = experiment: NCI In-Vitro Testing, Ovarian Cancer
# A498 = experiment: NCI In-Vitro Testing, Renal Cancer
# SR = experiment: NCI In-Vitro Testing, Leukemia
# RXF 399 = experiment: NCI In-Vitro Testing, Renal Cancer
# AS45/ATCC = experiment: NCI In-Vitro Testing, Non-Small Cell Lung Cancer
# SK-MEL-2 = experiment: NCI In-Vitro Testing, Melanoma
# HCT-15 = experiment: NCI In-Vitro Testing, Colon Cancer
# 785-0 = experiment: NCI In-Vitro Testing, Renal Cancer
# ACHN = experiment: NCI In-Vitro Testing, Renal Cancer
# HOP-92 = experiment: NCI In-Vitro Testing, Non-Small Cell Lung Cancer
# CAKI-1 = experiment: NCI In-Vitro Testing, Renal Cancer
# HT29 = experiment: NCI In-Vitro Testing, Colon Cancer
# PC-3 = experiment: NCI In-Vitro Testing, Prostate Cancer
# NCI-H23 = experiment: NCI In-Vitro Testing, Non-Small Cell Lung Cancer
# MALME-3M = experiment: NCI In-Vitro Testing, Melanoma
# SNB-19 = experiment: NCI In-Vitro Testing, CNS Cancer
# RPMI-8226 = experiment: NCI In-Vitro Testing, Leukemia
# MDA-MB-435 = experiment: NCI In-Vitro Testing, Breast Cancer
smiles,measurement,setting,value
Nc1nc2c(c(Nc3ccc(Cl)cc3)n1)-c1ccccc1C2 [AAG145-136],LC50,OVCAR-5,>1.00E−4 Molar
same,TGI,OVCAR-5,>1.00E−4 Molar
same,Percent Growth,OVCAR-5; Log10 Concentration −4.0 Molar,58%
same,Percent Growth,OVCAR-5; Log10 Concentration −5.0 Molar,47%
same,Percent Growth,OVCAR-5; Log10 Concentration −6.0 Molar,56%
same,Percent Growth,OVCAR-5; Log10 Concentration −7.0 Molar,77%
same,Percent Growth,OVCAR-5; Log10 Concentration −8.0 Molar,96%
same,GI50,A498,2.49E−6 Molar
same,LC50,A498,>1.00E−4 Molar
same,TGI,A498,2.85E−5 Molar
same,Percent Growth,A498; Log10 Concentration −4.0 Molar,−17%
same,Percent Growth,A498; Log10 Concentration −5.0 Molar,14%
same,Percent Growth,A498; Log10 Concentration −6.0 Molar,74%
same,Percent Growth,A498; Log10 Concentration −7.0 Molar,91%
same,Percent Growth,A498; Log10 Concentration −8.0 Molar,101%
same,GI50,SR,4.84E−8 Molar
same,LC50,SR,>1.00E−4 Molar
same,TGI,SR,>1.00E−4 Molar
same,Percent Growth,SR; Log10 Concentration −4.0 Molar,2%
same,Percent Growth,SR; Log10 Concentration −5.0 Molar,12%
same,Percent Growth,SR; Log10 Concentration −6.0 Molar,22%
same,Percent Growth,SR; Log10 Concentration −7.0 Molar,41%
same,Percent Growth,SR; Log10 Concentration −8.0 Molar,70%
same,GI50,RXF 399,1.20E−5 Molar
same,LC50,RXF 399,>1.00E−4 Molar
same,TGI,RXF 399,6.26E−5 Molar
same,Percent Growth,RXF 399; Log10 Concentration −4.0 Molar,−14%
same,Percent Growth,RXF 399; Log10 Concentration −5.0 Molar,56%
same,Percent Growth,RXF 399; Log10 Concentration −6.0 Molar,91%
same,Percent Growth,RXF 399; Log10 Concentration −7.0 Molar,107%
same,Percent Growth,RXF 399; Log10 Concentration −8.0 Molar,108%
same,GI50,AS45/ATCC,4.34E−8 Molar
same,LC50,AS45/ATCC,>1.00E−4 Molar
same,TGI,AS45/ATCC,>1.00E−4 Molar
same,Percent Growth,AS45/ATCC; Log10 Concentration −4.0 Molar,7%
same,Percent Growth,AS45/ATCC; Log10 Concentration −5.0 Molar,15%
same,Percent Growth,AS45/ATCC; Log10 Concentration −6.0 Molar,21%
same,Percent Growth,AS45/ATCC; Log10 Concentration −7.0 Molar,33%
same,Percent Growth,AS45/ATCC; Log10 Concentration −8.0 Molar,30%
same,GI50,SK-MEL-2,5.58E−7 Molar
same,LC50,SK-MEL-2,>1.00E−4 Molar
same,TGI,SK-MEL-2,>1.00E−4 Molar
same,Percent Growth,SK-MEL-2; Log10 Concentration −4.0 Molar,16%
same,Percent Growth,SK-MEL-2; Log10 Concentration −5.0 Molar,27%
same,Percent Growth,SK-MEL-2; Log10 Concentration −6.0 Molar,35%
same,Percent Growth,SK-MEL-2; Log10 Concentration −7.0 Molar,95%
same,Percent Growth,SK-MEL-2; Log10 Concentration −8.0 Molar,98%
same,GI50,HCT-15,4.34E−7 Molar
same,LC50,HCT-15,>1.00E−4 Molar
same,TGI,HCT-15,1.22E−5 Molar
same,Percent Growth,HCT-15; Log10 Concentration −4.0 Molar,−39%
same,Percent Growth,HCT-15; Log10 Concentration −5.0 Molar,4%
same,Percent Growth,HCT-15; Log10 Concentration −6.0 Molar,29%
same,Percent Growth,HCT-15; Log10 Concentration −7.0 Molar,68%
same,Percent Growth,HCT-15; Log10 Concentration −8.0 Molar,94%
same,GI50,785-0,5.14E−7 Molar
same,LC50,785-0,>1.00E−4 Molar
same,TGI,785-0,>1.00E−4 Molar
same,Percent Growth,785-0; Log10 Concentration −4.0 Molar,16%
same,Percent Growth,785-0; Log10 Concentration −5.0 Molar,26%
same,Percent Growth,785-0; Log10 Concentration −6.0 Molar,31%
same,Percent Growth,785-0; Log10 Concentration −7.0 Molar,97%
same,Percent Growth,785-0; Log10 Concentration −8.0 Molar,102%
same,GI50,ACHN,3.42E−7 Molar
same,LC50,ACHN,>1.00E−4 Molar
same,TGI,ACHN,1.41E−5 Molar
same,Percent Growth,ACHN; Log10 Concentration −4.0 Molar,−22%
same,Percent Growth,ACHN; Log10 Concentration −5.0 Molar,4%
same,Percent Growth,ACHN; Log10 Concentration −6.0 Molar,21%
same,Percent Growth,ACHN; Log10 Concentration −7.0 Molar,83%
same,Percent Growth,ACHN; Log10 Concentration −8.0 Molar,89%
same,GI50,HOP-92,1.81E−5 Molar
same,LC50,HOP-92,>1.00E−4 Molar
same,TGI,HOP-92,>1.00E−4 Molar
same,Percent Growth,HOP-92; Log10 Concentration −4.0 Molar,15%
same,Percent Growth,HOP-92; Log10 Concentration −5.0 Molar,62%
same,Percent Growth,HOP-92; Log10 Concentration −6.0 Molar,74%
same,Percent Growth,HOP-92; Log10 Concentration −7.0 Molar,96%
same,Percent Growth,HOP-92; Log10 Concentration −8.0 Molar,100%
same,GI50,CAKI-1,1.08E−6 Molar
same,LC50,CAKI-1,>1.00E−4 Molar
same,TGI,CAKI-1,>1.00E−4 Molar
same,Percent Growth,CAKI-1; Log10 Concentration −4.0 Molar,15%
same,Percent Growth,CAKI-1; Log10 Concentration −5.0 Molar,25%
same,Percent Growth,CAKI-1; Log10 Concentration −6.0 Molar,51%
same,Percent Growth,CAKI-1; Log10 Concentration −7.0 Molar,97%
same,Percent Growth,CAKI-1; Log10 Concentration −8.0 Molar,105%
same,GI50,HT29,9.39E−8 Molar
same,LC50,HT29,>1.00E−4 Molar
same,TGI,HT29,>1.00E−4 Molar
same,Percent Growth,HT29; Log10 Concentration −4.0 Molar,2%
same,Percent Growth,HT29; Log10 Concentration −5.0 Molar,7%
same,Percent Growth,HT29; Log10 Concentration −6.0 Molar,21%
same,Percent Growth,HT29; Log10 Concentration −7.0 Molar,49%
same,Percent Growth,HT29; Log10 Concentration −8.0 Molar,94%
same,GI50,PC-3,7.15E−7 Molar
same,LC50,PC-3,>1.00E−4 Molar
same,TGI,PC-3,7.99E−5 Molar
same,Percent Growth,PC-3; Log10 Concentration −4.0 Molar,−2%
same,Percent Growth,PC-3; Log10 Concentration −5.0 Molar,18%
same,Percent Growth,PC-3; Log10 Concentration −6.0 Molar,40%
same,Percent Growth,PC-3; Log10 Concentration −7.0 Molar,111%
same,Percent Growth,PC-3; Log10 Concentration −8.0 Molar,104%
same,GI50,NCI-H23,5.55E−7 Molar
same,LC50,NCI-H23,>1.00E−4 Molar
same,TGI,NCI-H23,>1.00E−4 Molar
same,Percent Growth,NCI-H23; Log10 Concentration −4.0 Molar,16%
same,Percent Growth,NCI-H23; Log10 Concentration −5.0 Molar,21%
same,Percent Growth,NCI-H23; Log10 Concentration −6.0 Molar,37%
same,Percent Growth,NCI-H23; Log10 Concentration −7.0 Molar,90%
same,Percent Growth,NCI-H23; Log10 Concentration −8.0 Molar,86%
same,GI50,MALME-3M,>1.00E−4 Molar
same,LC50,MALME-3M,>1.00E−4 Molar
same,TGI,MALME-3M,>1.00E−4 Molar
same,Percent Growth,MALME-3M; Log10 Concentration −4.0 Molar,78%
same,Percent Growth,MALME-3M; Log10 Concentration −5.0 Molar,64%
same,Percent Growth,MALME-3M; Log10 Concentration −6.0 Molar,106%
same,Percent Growth,MALME-3M; Log10 Concentration −7.0 Molar,97%
same,Percent Growth,MALME-3M; Log10 Concentration −8.0 Molar,96%
same,GI50,SNB-19,1.13E−7 Molar
same,LC50,SNB-19,>1.00E−4 Molar
same,TGI,SNB-19,>1.00E−4 Molar
same,Percent Growth,SNB-19; Log10 Concentration −4.0 Molar,6%
same,Percent Growth,SNB-19; Log10 Concentration −5.0 Molar,17%
same,Percent Growth,SNB-19; Log10 Concentration −6.0 Molar,28%
same,Percent Growth,SNB-19; Log10 Concentration −7.0 Molar,51%
same,Percent Growth,SNB-19; Log10 Concentration −8.0 Molar,100%
same,GI50,RPMI-8226,4.89E−7 Molar
same,LC50,RPMI-8226,>1.00E−4 Molar
same,TGI,RPMI-8226,>1.00E−4 Molar
same,Percent Growth,RPMI-8226; Log10 Concentration −4.0 Molar,7%
same,Percent Growth,RPMI-8226; Log10 Concentration −5.0 Molar,11%
same,Percent Growth,RPMI-8226; Log10 Concentration −6.0 Molar,32%
same,Percent Growth,RPMI-8226; Log10 Concentration −7.0 Molar,89%
same,Percent Growth,RPMI-8226; Log10 Concentration −8.0 Molar,96%
same,GI50,MDA-MB-435,5.54E−7 Molar
same,LC50,MDA-MB-435,>1.00E−4 Molar
same,TGI,MDA-MB-435,>1.00E−4 Molar
same,Percent Growth,MDA-MB-435; Log10 Concentration −4.0 Molar,33%
same,Percent Growth,MDA-MB-435; Log10 Concentration −5.0 Molar,20%
same,Percent Growth,MDA-MB-435; Log10 Concentration −6.0 Molar,31%
same,Percent Growth,MDA-MB-435; Log10 Concentration −7.0 Molar,104%
same,Percent Growth,MDA-MB-435; Log10 Concentration −8.0 Molar,104%
